In patent US11987588B2, “Modulators of the beta-3 adrenergic receptor useful for the treatment or prevention of heart failure and disorders related thereto” (Arena Pharmaceuticals, Inc., priority 2017, dated 2024):

Biological target: Beta-3 Adrenergic Receptor (Homo sapiens (Human), UniProt P13945)
Experiment: Homogeneous Time-Resolved Fluorescence (HTRF) cAMP antagonist assay, IC50 determination
Type: cell-based
Conditions: CHO-K1 cells stably expressing recombinant receptor, isoproterenol at EC90
In short: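 CHO-K1 cells stably expressing the recombinant receptor were preincubated with compound (10-point, 5-fold dilutions; top final typically 10 or 100 μM) in PBS with 1 mM IBMX, then stimulated with isoproterenol at its EC90 for 1 h at room temperature. cAMP was read by HTRF against an on-plate standard curve.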

Sequence of Beta-3 Adrenergic Receptor (P13945 whole entry, species assumed): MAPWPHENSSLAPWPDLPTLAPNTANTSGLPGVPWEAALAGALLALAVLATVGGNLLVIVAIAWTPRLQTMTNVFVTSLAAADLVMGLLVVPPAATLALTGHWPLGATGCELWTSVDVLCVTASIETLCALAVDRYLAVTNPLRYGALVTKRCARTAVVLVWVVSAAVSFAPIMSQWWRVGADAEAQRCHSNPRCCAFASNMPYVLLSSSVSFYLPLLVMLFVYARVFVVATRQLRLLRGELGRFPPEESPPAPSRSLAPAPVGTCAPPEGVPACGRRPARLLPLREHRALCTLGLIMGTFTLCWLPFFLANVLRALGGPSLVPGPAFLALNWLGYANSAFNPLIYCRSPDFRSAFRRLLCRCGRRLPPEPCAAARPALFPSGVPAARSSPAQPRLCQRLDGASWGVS

Structure (SMILES)	IC50 [µM]
CNS(=O)(=O)c1cccc(OC[C@@H](O)CN[C@H]2COC3(CCN(S(=O)(=O)c4cnc5cc(C)ccc5c4O)CC3)C2)c1 [Compound 538, 3-((S)-2-hydroxy-3-((R)-8-(4-hydroxy-7-methylquinolin-3-ylsulfonyl)-1-oxa-8-azaspiro[4.5]decan-3-ylamino)propoxy)-N-methylbenzenesulfonamide]	0.0542
CNS(=O)(=O)c1cccc(OC[C@@H](O)CNC2COC3(CCN(S(=O)(=O)c4ccc(-c5ccncc5)cc4)CC3)C2)c1 (stereo partly drawn) [Compound 408, 3-((2S)-2-hydroxy-3-(8-(4-(pyridin-4-yl)phenylsulfonyl)-1-oxa-8-azaspiro[4.5]decan-3-ylamino)propoxy)-N-methylbenzenesulfonamide]	0.0391
CCOc1ccc(-c2ccc(CN)cc2)cc1S(=O)(=O)N1CCC2(CC1)C[C@H](NC[C@H](O)COc1cccc(S(=O)(=O)NC)c1)CO2 [Compound 419, 3-((S)-3-((S)-8-(4′-(aminomethyl)-4-ethoxybiphenyl-3-ylsulfonyl)-1-oxa-8-azaspiro[4.5]decan-3-ylamino)-2-hydroxypropoxy)-N-methylbenzenesulfonamide]	0.00969
CNS(=O)(=O)c1cccc(OC[C@@H](O)CNC2COC3(CCN(S(=O)(=O)c4cccc(-c5cccc(S(=O)(=O)N(C)C)c5)c4)CC3)C2)c1 (stereo partly drawn) [Compound 115, 3′-(3-((S)-2-hydroxy-3-(3-(N-methylsulfamoyl)phenoxy)propylamino)-1-oxa-8-azaspiro[4.5]decan-8-ylsulfonyl)-N,N-dimethylbiphenyl-3-sulfonamide]	0.0335
CNS(=O)(=O)c1cccc(OC[C@@H](O)CN[C@H]2COC3(CCN(S(=O)(=O)c4cnc5cccnc5c4)CC3)C2)c1 [Compound 485, 3-((S)-3-((R)-8-(1,5-naphthyridin-3-ylsulfonyl)-1-oxa-8-azaspiro[4.5]decan-3-ylamino)-2-hydroxypropoxy)-N-methylbenzenesulfonamide]	0.0358
CCNS(=O)(=O)c1cccc(OC[C@@H](O)CNC2COC3(CCN(S(=O)(=O)c4ccc5c(c4)CCCC5)CC3)C2)c1 (stereo partly drawn) [Compound 231, N-ethyl-3-((2S)-2-hydroxy-3-(8-(5,6,7,8-tetrahydronaphthalen-2-ylsulfonyl)-1-oxa-8-azaspiro[4.5]decan-3-ylamino)propoxy)benzenesulfonamide]	0.0726
CCNCc1ccc(-c2cccc(S(=O)(=O)N3CCC4(CC3)CC(NC[C@H](O)COc3cccc(S(=O)(=O)NC)c3)CO4)c2)cc1 (stereo partly drawn) [Compound 302, 3-((2S)-3-(8-(4′-((ethylamino)methyl)biphenyl-3-ylsulfonyl)-1-oxa-8-azaspiro[4.5]decan-3-ylamino)-2-hydroxypropoxy)-N-methylbenzenesulfonamide]	0.458
CNS(=O)(=O)c1cccc(OC[C@@H](O)CNC2COC3(CCN(S(=O)(=O)c4ccc(-c5ccc(CN)cc5)cc4)CC3)C2)c1 (stereo partly drawn) [Compound 382, 3-((2S)-3-(8-(4′-(aminomethyl)biphenyl-4-ylsulfonyl)-1-oxa-8-azaspiro[4.5]decan-3-ylamino)-2-hydroxypropoxy)-N-methylbenzenesulfonamide]	0.021
CNS(=O)(=O)c1cccc(OC[C@@H](O)CNC2COC3(CCN(S(=O)(=O)c4ccc(C(=O)O)cc4)CC3)C2)c1 (stereo partly drawn) [Compound 40, 4-(3-((S)-2-hydroxy-3-(3-(N-methylsulfamoyl)phenoxy)propylamino)-1-oxa-8-azaspiro[4.5]decan-8-ylsulfonyl)benzoic acid]	0.577
NS(=O)(=O)c1cccc(OC[C@@H](O)CN[C@H]2COC3(CCN(S(=O)(=O)c4c[nH]c5ccc(F)cc5c4=O)CC3)C2)c1 [Compound 552, 3-((S)-3-((R)-8-(6-fluoro-4-oxo-1,4-dihydroquinolin-3-ylsulfonyl)-1-oxa-8-azaspiro[4.5]decan-3-ylamino)-2-hydroxypropoxy)benzenesulfonamide]	0.0178
CNS(=O)(=O)c1cccc(OC[C@@H](O)CNC2COC3(CCN(S(=O)(=O)c4cccc(-c5cccc(N(C)C)c5)c4)CC3)C2)c1 (stereo partly drawn) [Compound 83, 3-((2S)-3-(8-(3′-(dimethylamino)biphenyl-3-ylsulfonyl)-1-oxa-8-azaspiro[4.5]decan-3-ylamino)-2-hydroxypropoxy)-N-methylbenzenesulfonamide]	0.0999
CN1CCOc2ncc(S(=O)(=O)N3CCC4(CC3)C[C@@H](NC[C@H](O)COc3cccc(S(=O)(=O)N[C@@H]5CCCC[C@@H]5O)c3)CO4)cc21 [Compound 435, 3-((S)-2-hydroxy-3-((R)-8-(1-methyl-2,3-dihydro-1H-pyrido[2,3-b][1,4]oxazin-7-ylsulfonyl)-1-oxa-8-azaspiro[4.5]decan-3-ylamino)propoxy)-N-((1R,2S)-2-hydroxycyclohexyl)benzenesulfonamide]	0.191
CNS(=O)(=O)c1cccc(OC[C@@H](O)CNC2COC3(CCN(S(=O)(=O)c4ccccc4OC(F)(F)F)CC3)C2)c1 (stereo partly drawn) [Compound 171, 3-((2S)-2-hydroxy-3-(8-(2-(trifluoromethoxy)phenylsulfonyl)-1-oxa-8-azaspiro[4.5]decan-3-ylamino)propoxy)-N-methylbenzenesulfonamide]	0.0307
CNS(=O)(=O)c1cccc(OC[C@@H](O)CNC2COC3(CCN(S(=O)(=O)c4ccc(OC)nc4)CC3)C2)c1 (stereo partly drawn) [Compound 396, 3-((2S)-2-hydroxy-3-(8-(6-methoxypyridin-3-ylsulfonyl)-1-oxa-8-azaspiro[4.5]decan-3-ylamino)propoxy)-N-methylbenzenesulfonamide]	0.0303
CNS(=O)(=O)c1cccc(OC[C@@H](O)CN[C@H]2COC3(CCN(S(=O)(=O)c4cccc(-c5cc[nH]n5)c4)CC3)C2)c1 [Compound 296, 3-((S)-3-((R)-8-(3-(1H-pyrazol-3-yl)phenylsulfonyl)-1-oxa-8-azaspiro[4.5]decan-3-ylamino)-2-hydroxypropoxy)-N-methylbenzenesulfonamide]	0.0175
CNS(=O)(=O)c1cccc(OC[C@@H](O)CNC2COC3(CCN(S(=O)(=O)c4ccc(Br)c(C)c4)CC3)C2)c1 (stereo partly drawn) [Compound 159, 3-((2S)-3-(8-(4-bromo-3-methylphenylsulfonyl)-1-oxa-8-azaspiro[4.5]decan-3-ylamino)-2-hydroxypropoxy)-N-methylbenzenesulfonamide]	0.00478
CNS(=O)(=O)c1cccc(OC[C@@H](O)CNC2COC3(CCN(S(=O)(=O)c4cccc(-c5ccc(C(N)=O)cc5)c4)CC3)C2)c1 (stereo partly drawn) [Compound 368, 3′-(3-((S)-2-hydroxy-3-(3-(N-methylsulfamoyl)phenoxy)propylamino)-1-oxa-8-azaspiro[4.5]decan-8-ylsulfonyl)biphenyl-4-carboxamide]	0.0352
CNS(=O)(=O)c1cccc(OC[C@@H](O)CNC2COC3(CCN(S(=O)(=O)c4cccc(Oc5ccc(C(F)(F)F)cc5)c4)CC3)C2)c1 (stereo partly drawn) [Compound 161, 3-((2S)-2-hydroxy-3-(8-(3-(4-(trifluoromethyl)phenoxy)phenylsulfonyl)-1-oxa-8-azaspiro[4.5]decan-3-ylamino)propoxy)-N-methylbenzenesulfonamide]	0.0837
CCN1CCC(NS(=O)(=O)c2cccc(OC[C@@H](O)CNC3COC4(CCN(S(=O)(=O)c5ccc6ccccc6c5)CC4)C3)c2)CC1 (stereo partly drawn) [Compound 165, N-(1-ethylpiperidin-4-yl)-3-((2S)-2-hydroxy-3-(8-(naphthalen-2-ylsulfonyl)-1-oxa-8-azaspiro[4.5]decan-3-ylamino)propoxy)benzenesulfonamide]	0.311
